Molecules are shown by their SMILES.

For the assay, the system named is FAM-(CUG)10-BHQ (RNA, repeat) GCGCUGCUGCUGCUGCUGCUGAAAAGCUGCUGCUGCUGCUGCGC
The assay is described as follows: FAM/BHQ fluorescence thermal melting. The conditions noted are these: 5 μM compound.

Usually ΔTm stands for the change in melting temperature against a reference sample. With `CC1CCCn2cc(-c3cccc(NC(=O)CCCCCCNCCCCNCCCCCCC(=O)Nc4cccc(-c5cn6c(n5)C(C)CCC6)c4)c3)nc21` (stereo not shown), the ΔTm is 3.1 ± 0.7 °C.

The values above are taken from publication PMC12455570 (2025).
